≈ marks a conversion by molar mass, not a printed value.
What was measured:
[1] = test system: Mycobacterium tuberculosis; experiment: Antitubercular activity against Mycobacterium tuberculosis H37Rv after 30 days by agar microdilution method; type: functional
[2] = test system: Mycobacterium tuberculosis; experiment: Antitubercular activity against Mycobacterium tuberculosis H37Ra after 5 days by micro Alamar blue essay; type: functional; details: 120 h

| SMILES | MIC [1] [µg/mL] | MIC [2] [µg/mL] |
| --- | --- | --- |
| NNC(=O)c1ccncc1 [ISONIAZID] | 0.65 (≈ 4.74 µM) |  |
| COC1=C(OC)/C(=C/Cn2cnc3c(N)ncnc32)OC1=O | > 25 | > 12.5 |
| COC1=C(OC)C(O)(CCn2ccnc2)N(Cc2ccccc2)C1=O (centres undefined) | > 25 | > 12.5 |
| COC1=C(OC)/C(=C/Cn2ccnc2)OC1=O | > 25 | > 12.5 |
| COC1=C(OC)C(=CCn2cnc3ccccc32)OC1=O | > 25 | > 12.5 |

From ChEMBL document CHEMBL3045900, “Synthesis and antitubercular activity of nucleoside analogs based on L-ascorbic acid and bases” (2008)
